These compounds were tested against USP30 (Homo sapiens (Human), UniProt Q70CQ3) (assay: In vitro biochemical assay for USP30 enzyme (Ubiquitin-Rhodamine110 cleavage, fluorescence)). Settings: 20 nM USP30, 15 min pre-incubation, 100 nM Ub rhodamine substrate, 2 hrs at room temperature.
Protocol: In vitro biochemical assay for USP30 enzyme
The in vitro assay for USP30 evaluates the ability of a test compound to inhibit the activity of the enzyme to cleave ubiquitin from a substrate. Ubiquitin-rhodamine 110 is a quenched, fluorescent substrate for USP30. Cleavage of the amide bond between the C-terminal glycine of ubiquitin and rhodamine results in an increase in rhodamine fluorescence at 535 nm (Exc. 485 nm).
Incubation of the substrate in the presence or absence of USP30 was compared to confirm the deubiquitylating activity of USP30. The USP30 enzyme assay was performed by pre-incubating 20 nM of USP30 with varying concentration of a test compound in the assay buffer [PBS (pH 7.4), 1 mM DTT, 0.01% Tween 20, 0.01% BSA, DMSO final concentration is 1%] for 15 mins at room temperature, following which 100 nM of substrate Ub rhodamine was added and incubated at room temperature for 2 hrs and the plate was read for fluorescence intensity at Ex. 485 nm/535 nm in VICTOR X5 plate reader. The percent inhibition of activity of the enzyme is calculated by comparing counts in the presence and absence of compounds.
Test compounds were screened at various concentrations (10-12 tested concentrations) and dose response curves were generated was generated using GraphPad Prism software Version 7 (San Diego, Calif., USA) with non-linear regression curve fit for sigmoidal dose response (variable slope).

Sequence of USP30 (Q70CQ3 whole entry): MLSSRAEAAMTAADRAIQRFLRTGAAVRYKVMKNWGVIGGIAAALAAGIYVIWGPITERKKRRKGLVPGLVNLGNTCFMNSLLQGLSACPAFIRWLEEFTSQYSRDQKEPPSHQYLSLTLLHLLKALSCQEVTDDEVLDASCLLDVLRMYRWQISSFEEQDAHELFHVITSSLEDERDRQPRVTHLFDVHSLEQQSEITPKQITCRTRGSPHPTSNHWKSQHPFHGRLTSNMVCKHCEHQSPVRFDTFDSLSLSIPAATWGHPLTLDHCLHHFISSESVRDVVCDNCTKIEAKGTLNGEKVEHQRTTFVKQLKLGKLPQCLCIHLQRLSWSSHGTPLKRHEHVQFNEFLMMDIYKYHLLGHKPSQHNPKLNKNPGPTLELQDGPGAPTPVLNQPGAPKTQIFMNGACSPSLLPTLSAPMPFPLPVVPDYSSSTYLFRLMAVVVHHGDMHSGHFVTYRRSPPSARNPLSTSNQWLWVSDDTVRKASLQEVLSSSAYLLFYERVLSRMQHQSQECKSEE

Row | IC50 [µM] | Structure (SMILES)
1 | 0.071 | CC(C)(C)NS(=O)(=O)c1ccc(NC(=O)[C@H](CC2CCOCC2)NC(=O)C2CCCCC2)cc1 [Compound 19ac, (S)-N-(1-((4-(N-(tert-butyl)sulfamoyl)phenyl)amino)-1-oxo-3-(tetrahydro-2H-pyran-4-yl)propan-2-yl)cyclohexanecarboxamide]
2 | 0.2 | CC(C)(C)NS(=O)(=O)c1ccc(NC(=O)[C@H](Cc2cccs2)NC(=O)c2ccccn2)cc1 [Compound 19s, (S)-N-(1-((4-(N-(tert-butyl)sulfamoyl)phenyl)amino)-1-oxo-3-(thiophen-2-yl)propan-2-yl)picolinamide]
3 | 0.208 | COc1ccc(C[C@H](NC(=O)c2cccnc2)C(=O)Nc2ccc(S(=O)(=O)NC(C)(C)C)cc2)cc1 [Compound 19aa, (S)-N-(1-((4-(N-(tert-butyl)sulfamoyl)phenyl)amino)-3-(4-methoxyphenyl)-1-oxopropan-2-yl)nicotinamide]
4 | > 10 | Cc1ccccc1C[C@H](NC(=O)c1ccccc1)C(=O)Nc1cccc2c(S(=O)(=O)NC(C)(C)C)cccc12 [Compound 7l, (S)-N-(1-((5-(N-(tert-butyl)sulfamoyl)naphthalen-1-yl)amino)-1-oxo-3-(o-tolyl)propan-2-yl)benzamide]
5 | > 10 | CC(C)(C)NS(=O)(=O)c1cccc2c(NC(=O)[C@H](Cc3ccccc3)NC(=O)C34CC5CC(CC(C5)C3)C4)cccc12 [Compound 4s]
6 | > 10 | CC(C)(C)NS(=O)(=O)c1cccc2c(NC(=O)[C@H](Cc3ccccc3)NC(=O)c3ncccn3)cccc12 [Compound 4o, (S)-N-(1-((5-(N-(tert-butyl)sulfamoyl)naphthalen-1-yl)amino)-1-oxo-3-phenylpropan-2-yl)pyrimidine-2-carboxamide]
7 | 0.23 | CC(C)(C)NS(=O)(=O)c1cccc2c(NC(=O)[C@H](Cc3cccs3)NC(=O)c3ccccc3)cccc12 [Compound 7k, (S)-N-(1-((5-(N-(tert-butyl)sulfamoyl)naphthalen-1-yl)amino)-1-oxo-3-(thiophen-2-yl)propan-2-yl)benzamide]
8 | > 10 | CC(C)(C)NS(=O)(=O)c1cccc2c(NC(=O)[C@H](Cc3ccccc3)NC(=O)Cc3ccccc3)cccc12 [Compound 4e, (S)-N-(5-(N-(tert-butyl)sulfamoyl)naphthalen-1-yl)-3-phenyl-2-(2-phenylacetamido)propanamide]
9 | 0.028 | CC(C)(C)NS(=O)(=O)c1ccc(NC(=O)[C@H](Cc2cccs2)NC(=O)C2CCCCC2)cc1 [Compound 19a, (S)-N-(1-((4-(N-(tert-butyl)sulfamoyl)phenyl)amino)-1-oxo-3-(thiophen-2-yl)propan-2-yl)cyclohexanecarboxamide]
10 | > 10 | CC(C)(C)NS(=O)(=O)c1cccc2c(NC(=O)[C@H](Cc3cnc[nH]3)NC(=O)c3ccccc3)cccc12 [Compound 7i, (S)-N-(1-((5-(N-(tert-butyl)sulfamoyl)naphthalen-1-yl)amino)-3-(1H-imidazol-5-yl)-1-oxopropan-2-yl)benzamide]
11 | > 10 | CC(C)(C)NS(=O)(=O)c1cccc2c(NC(=O)[C@H](Cc3ccccc3)NC(=O)CCc3ccccc3)cccc12 [Compound 4f, (S)-N-(5-(N-(tert-butyl)sulfamoyl)naphthalen-1-yl)-3-phenyl-2-(3-phenylpropanamido)propanamide]
12 | > 10 | CC(C)(C)NS(=O)(=O)c1ccc(NC(=O)[C@H](Cc2cccc(Cl)c2)NC(=O)C2CCCCC2)cc1 [Compound 19e, (S)-N-(1-((4-(N-(tert-butyl)sulfamoyl)phenyl)amino)-3-(3-chlorophenyl)-1-oxopropan-2-yl)cyclohexanecarboxamide]
13 | 0.18 | CC(C)(C)NS(=O)(=O)c1cccc2c(NC(=O)[C@H](Cc3ccccc3)NC(=O)c3nccs3)cccc12 [Compound 4q, (S)-N-(1-((5-(N-(tert-butyl)sulfamoyl)naphthalen-1-yl)amino)-1-oxo-3-phenylpropan-2-yl)thiazole-2-carboxamide]
14 | 0.048 | CC(C)(C)NS(=O)(=O)c1ccc(NC(=O)[C@H](Cc2ccccn2)NC(=O)c2ccc(F)cc2)cc1 [Compound 19o, (S)-N-(1-((4-(N-(tert-butyl)sulfamoyl)phenyl)amino)-1-oxo-3-(pyridin-2-yl)propan-2-yl)-4-fluorobenzamide]
15 | > 10 | CC(C)(C)NS(=O)(=O)c1ccc(NC(=O)[C@H](Cc2ccccc2)NC(=O)c2ccccc2)cc1 [Compound 10a, (S)-N-(1-((4-(N-(tert-butyl)sulfamoyl)phenyl)amino)-1-oxo-3-phenylpropan-2-yl)benzamide]
16 | > 10 | COc1ccc(C[C@H](NC(=O)c2cocn2)C(=O)Nc2ccc(S(=O)(=O)NC(C)(C)C)cc2)cc1 [Compound 19z, (S)-N-(1-((4-(N-(tert-butyl)sulfamoyl)phenyl)amino)-3-(4-methoxyphenyl)-1-oxopropan-2-yl)oxazole-4-carboxamide]
17 | 9 | COc1ccc(C(=O)N[C@@H](Cc2ccccc2)C(=O)Nc2cccc3c(S(=O)(=O)NC(C)(C)C)cccc23)cc1 [Compound 4v, (S)-N-(1-((5-(N-(tert-butyl)sulfamoyl)naphthalen-1-yl)amino)-1-oxo-3-phenylpropan-2-yl)-4-methoxybenzamide]
18 | > 10 | CC(C)(C)NS(=O)(=O)c1ccc(NC(=O)[C@H](CO)NC(=O)C2CCCCC2)cc1 [Compound 19j, (S)-N-(1-((4-(N-(tert-butyl)sulfamoyl)phenyl)amino)-3-hydroxy-1-oxopropan-2-yl)cyclohexanecarboxamide]
19 | > 10 | CC(C)(C)NS(=O)(=O)c1cccc2c(NC(=O)[C@H](Cc3ccccc3)NC(=O)c3ccc(O)cc3)cccc12 [Compound 4w, (S)-N-(1-((5-(N-(tert-butyl)sulfamoyl)naphthalen-1-yl)amino)-1-oxo-3-phenylpropan-2-yl)-4-hydroxybenzamide]
20 | > 10 | CC(C)(C)NS(=O)(=O)c1cccc2c(NC(=O)[C@H](Cc3ccccc3)NC(=O)C3CC3)cccc12 [Compound 4d, (S)-N-(1-((5-(N-(tert-butyl)sulfamoyl)naphthalen-1-yl)amino)-1-oxo-3-phenylpropan-2-yl)cyclopropanecarboxamide]
21 | 1.9 | CC(C)(C)NS(=O)(=O)c1cccc2c(NC(=O)[C@H](Cc3ccccc3)NC(=O)c3ccc[nH]3)cccc12 [Compound 4y, (S)-N-(1-((5-(N-(tert-butyl)sulfamoyl)naphthalen-1-yl)amino)-1-oxo-3-phenylpropan-2-yl)-1H-pyrrole-2-carboxamide]
22 | > 10 | CC(C)(C)NS(=O)(=O)c1cccc2c(NC(=O)[C@H](Cc3ccccc3)NC(=O)C3CCCO3)cccc12 (stereo partly drawn) [Compound 4u, N-((S)-1-((5-(N-(tert-butyl)sulfamoyl)naphthalen-1-yl)amino)-1-oxo-3-phenylpropan-2-yl)tetrahydrofuran-2-carboxamide]
23 | 0.25 | CC(C)(C)NS(=O)(=O)c1ccc(NC(=O)[C@H](Cc2ccccc2)NC(=O)c2ccccn2)cc1 [Compound 10h, (S)-N-(1-((4-(N-(tert-butyl)sulfamoyl)phenyl)amino)-1-oxo-3-phenylpropan-2-yl)picolinamide]
24 | > 10 | CC(C)(C)NS(=O)(=O)c1cccc2c(NC(=O)[C@H](Cc3ccccc3)NC(=O)/C=C/c3ccccc3)cccc12 [Compound 19q, (S)-N-(1-((5-(N-(tert-butyl)sulfamoyl)naphthalen-1-yl)amino)-1-oxo-3-phenylpropan-2-yl)cinnamamide]
25 | > 10 | CC(C)(C)NS(=O)(=O)c1ccc(NC(=O)[C@H](CC2CCCCC2)NC(=O)c2cccc(C#N)c2)cc1 [Compound 14i, (S)-N-(1-((4-(N-(tert-butyl)sulfamoyl)phenyl)amino)-3-cyclohexyl-1-oxopropan-2-yl)-3-cyanobenzamide]
26 | > 10 | COC(=O)c1ccc(C(=O)N[C@@H](Cc2ccccc2)C(=O)Nc2ccc(S(=O)(=O)NC(C)(C)C)cc2)cc1 [Compound 10g, methyl (S)-4-((1-((4-(N-(tert-butyl)sulfamoyl)phenyl)amino)-1-oxo-3-phenylpropan-2-yl)carbamoyl)benzoate]
27 | 0.153 | CC(C)(C)NS(=O)(=O)c1cccc2c(NC(=O)[C@H](Cc3ccc(F)cc3)NC(=O)c3ccccc3)cccc12 [Compound 7e, (S)-N-(1-((5-(N-(tert-butyl)sulfamoyl)naphthalen-1-yl)amino)-3-(4-fluorophenyl)-1-oxopropan-2-yl)benzamide]
